Laboratory results from US6262116A, “Transcription therapy for cancers” (Sloan-Kettering Institute for Cancer Research, priority 1998, dated 2001).

Legend:
[1] = system: acute promyelocytic leukemia; format: in vivo, human; conditions: Jan. `98 (first line)
From the text: The patient used for clinical study is a person who was diagnosed with acute promyelocytic leukemia in 1994.

[2] = system: PML-retinoic acid receptor-α; test: 3XRARE-Luc reporter transfection assay in 293T cells, PML-RARα; format: cell-based, human
Method: (§1) The experiment was performed in medium reconstituted with serum not depleted of endogenous retinoids. Luciferase activity was measured in a scintillation counter and normalized with the internal β-galactosidase standard. […] Note that in panels A and B luciferase activity is expressed by different scales.
(§2) Luciferase activity was normalized with the internal β-galactosidase standard. Values represent the averages of two independent transfections.
(§3) 293T cells and KG1 cells were transfected by calcium phosphate precipitation, and by electroporation as already described^25, and luciferase activity of each sample was normalized against internal control β-galactosidase activity^25.
(§4) Nuclear receptor co-repressors form complexes with histone deacetylases (HDAC1 or 2), resulting in nucleosome assembly and transcriptional repression^15.

[3] = system: PLZF-retinoic acid receptor-α; test: 3XRARE-Luc reporter transfection assay in 293T cells, PLZF-RARα; format: cell-based, human
Method: as §1, §2, §3, §4

[4] = system: PLZF-retinoic acid receptor-α bone marrow leukaemic cells; test: Proliferation (3H-thymidine incorporation) of PLZF-RARα bone marrow leukaemic cells; format: cell-based, mouse
Method: (§5) Myeloid differentiation was evaluated by performing the nitroblue tetrazolium (NBT) assay, and cell proliferation by measuring DNA synthesis quantitating incorporation of ^3 H-thymidine.
(§6) Differentiation was evaluated performing the nitroblue tetrazolium (NBT) assay and morphological differential count^32. Proliferation of bone marrow cells was evaluated by measuring DNA synthesis quantitating incorporation of ^3 H-thymidine (Amersham). Bone marrow cells were plated at a density of 2×10^6 cells/ml and were pulsed with ^3 H-thymidine at a final concentration of […].

[5] = system: PLZF-retinoic acid receptor-α bone marrow leukaemic cells; test: Myeloid differentiation (NBT assay) of PLZF-RARα bone marrow leukaemic cells; format: cell-based, mouse; conditions: Trichostatin A alone (5 ng/ml)
Method: as §5, §6

NB4 cells [6] = test: NB4 cell differentiation (CD11b expression and NBT reduction); format: cell-based, human
Method: (§7) NB4 cells, a line that stably carries the PML/RAR-α fusion protein of acute promyelocytic leukemia^71, were maintained in RPMI1640 medium, which was supplemented with 10% fetal bovine serum and 1% of penicillin-streptomycin, at 37° C. in 5% CO2 atmosphere. Cultures were established at an initial density of 10^5 cells/ml in the presence or absence of drugs at various concentrations. Cellular proliferation was measured by assessment of ^3 H-thymidine incorporation. Aliquots (180 μl) from each culture were placed into 96-well plates in triplicate after 20 hrs of incubation, and 0.5 μCi of ^3 H-thymidine in 20 μl of medium was added to each well. […] The proportion of cells undergoing apoptosis was determined by Annexin V staining^72. Aliquots (1 ml) from each culture were harvested after 48 hrs incubation and the cells were stained with fluorescein isothiocyanate (FITC)-conjugated Annexin V and propidium iodide, according to the manufacturer's instructions (PharMingen, San Diego, Calif.). Annexin V and propidium iodide positivity were analyzed by flow cytometry (Becton-Dickinson, Mountainview, Calif.). Cell viability was measured after 4 days of incubation by using trypan blue exclusion. Cellular differentiation was evaluated at day 4 of incubation using both an assay for nitroblue tetrazolium (NBT) reduction and expression of CD11b (a cell surface differentiation antigen)^73. Briefly, 10^6 cells were harvested and incubated with 0.1% NBT solution in the presence of 12-o-tetradecanoylphorbol 13-acetate (TPA) (0.1 μg/ml) for 1 hr. The pellet of the mixture was then resuspended with 0.04 M HCl/10% SDS and kept at room temperature for 24 hrs. […] For CD11b expression, 10^6 cells were incubated with FITC-conjugated CD11b monoclonal antibody (PharMingen). A FITC-conjugated isotype was used as background control. Expression of CD11b, including percentage of positive cells and the fluorescence intensity, was determined by using flow cytometry (Becton Dickinson).

[7] = Plasma concentrations of phenylbutyrate during clinical infusion; format: in vivo, human
From the text: During the post-remission treatment course, blood specimens collected on heparin were serially obtained before and 2, 4, and 6 hrs following a 2-hour infusion of phenylbutyrate for determination of histone acetylation levels in leukocytes.

[8] = system: acetylated histones H3 and H4; test: Histone hyperacetylation in patient's blood and bone marrow mononuclear cells (Western, immunofluorescence); format: in vivo, human
Method: Hyperacetylation was detected using antiacetylated H3 or H4 antibodies reacting with histones that were acid-extracted from nucleated cells in peripheral blood before (lane 1) and 2, 4 and 6 hours (lanes 2 to 4) after initiation of the phenylbutyrate infusion, and from bone marrow before (lane 5) and after (lane 6) completion of the infusion. The parallel gel stained with Coomassie blue is a loading control.
Mononuclear cells from the patient's blood and bone marrow were isolated by density centrifugation and were applied on slides by cytospin. The slides were fixed in 95% ethanol/5% acetic acid for 1 min, permeabilized and blocked in 10% goat serum/1% BSA/0.3% Triton X-100/PBS for 40 min. The slides were then incubated with anti-acetylated histone H4 antibody (Upstate Biotechnology, Inc., Lake Placid, N.Y.) for 1 hr. A Texas-red-conjugated IgG was used as a secondary antibody to reveal the positivity; staining with 4',6-diamidino-2-phenylindole (DAPI) was used to reveal nuclei.
Nuclei from separated blood and bone marrow mononuclear cells were isolated by lysis in buffer containing 10 mM Tris-HCl pH 6.5, 50 mM sodium bisulfite, 1% Triton X-100, 10 mM MgCl2, 8.6% sucrose and Dounce homogenization. Histones were isolated by acid extraction^74. Isolated histones ([…]) were then separated on 15% SDS-PAGE minigels (Bio-Rad, Hercules, Calif.) and transferred to nitrocellulose (Schleicher and Schuell, Keene, N.H.). Hyperacetylated histones were detected by antibodies that specifically recognize the hyperacetylated forms of histone H4 and histone H3 (Upstate Biotechnology) and were visualized by chemiluminescence (Pierce, Rockford, Ill.). As a control for the amount of protein loading, parallel gels were stained with Coomassie blue.

NB4 cells [9] = test: NB4 cell viability (trypan blue exclusion); format: cell-based, human; conditions: phenylbutyrate 10 mM, 4 days of culture
Method: NB4 cells, a line that stably carries the PML/RAR-α fusion protein of acute promyelocytic leukemia^71, were maintained in RPMI1640 medium, which was supplemented with 10% fetal bovine serum and 1% of penicillin-streptomycin, at 37° C. in 5% CO2 atmosphere. Cultures were established at an initial density of 10^5 cells/ml in the presence or absence of drugs at various concentrations. Cellular proliferation was measured by assessment of ^3 H-thymidine incorporation. Aliquots (180 μl) from each culture were placed into 96-well plates in triplicate after 20 hrs of incubation, and 0.5 μCi of ^3 H-thymidine in 20 μl of medium was added to each well. […] The proportion of cells undergoing apoptosis was determined by Annexin V staining^72. […] Annexin V and propidium iodide positivity were analyzed by flow cytometry (Becton-Dickinson, Mountainview, Calif.). Cell viability was measured after 4 days of incubation by using trypan blue exclusion. Cellular differentiation was evaluated at day 4 of incubation using both an assay for nitroblue tetrazolium (NBT) reduction and expression of CD11b (a cell surface differentiation antigen)^73. […] The optical density was measured at 540 nm. […] Expression of CD11b, including percentage of positive cells and the fluorescence intensity, was determined by using flow cytometry (Becton Dickinson).

NB4 cells [10] = test: NB4 cell apoptosis (Annexin V flow cytometry); format: cell-based, human
Method: as §7

[11] = system: myelodysplasia, myeloid leukemia and solid tumors; conditions: human, in vivo; cited from earlier work
NB4 cells [12] = test: NB4 cell proliferation (3H-thymidine incorporation); format: cell-based, human
Method: as §7

[13] = Trichostatin A alone (not shown)
[14] = retinoic acid 10^-6 M with Trichostatin A 150 nM, 36 hours

For `CC(=O)O[C@H]1C(=O)[C@@]2(C)[C@H]([C@H](OC(=O)c3ccccc3)[C@]3(O)C[C@H](OC(=O)[C@H](O)[C@@H](NC(=O)c4ccccc4)c4ccccc4)C(C)=C1C3(C)C)[C@]1(OC(C)=O)CO[C@@H]1C[C@@H]2O` [Paclitaxel], the Response [1] was “Progression”.

With `CC(/C=C/C(=O)NO)=C\[C@@H](C)C(=O)c1ccc(N(C)C)cc1` [Trichostatin A] the transcriptional effect [2, 13] was “negligible transcriptional effects”, the “transactivation of reporter / reversal of transcriptional repression” value [2, 14] was “reverted the transcriptional repression” and the transcriptional effect [3, 13] was “negligible transcriptional effects”. The “transactivation of reporter / reversal of transcriptional repression” value [3, 14] was “reverted the transcriptional repression”, the growth inhibition ([4]; Trichostatin A alone (5 ng/ml)) was “marked growth inhibitory effect” and the differentiation [5] was “negligible differentiating effect”.

With `O=C(O)CCCc1ccccc1` [phenylbutyrate, sodium phenylbutyrate] the differentiation (NB4 cells [6]; phenylbutyrate 0.08 mM) was “no effect”, the differentiation (NB4 cells [6]; phenylbutyrate 0.4 mM) was “no effects on other parameters” and the differentiation (NB4 cells [6]; phenylbutyrate 2 mM) was “little effect upon differentiation”. For the same molecule, the “clinical achievability of concentration” value ([7]; 10 mM) was “not clinically achievable”, the Cmax ([7]; human, plasma, 150 mg/kg, patient, intravenous infusion, read-out: peak plasma levels transiently attained after completing the drug infusion) was about 2000 µM and the “magnitude of hyperacetylation (Western analysis)” value ([8]; 6 hours after starting the infusion) was “greatly diminished”. For the same molecule, the “acetylated histone H4 (immunofluorescence staining of nuclei)” value ([8]; peripheral blood cells, 6 hours after starting the infusion (approximately 4 hours after discontinuing the drug)) was “hyperacetylation was still visually evident”, the “percentage of positive staining cells and staining intensity, acetylated histone H4” value ([8]; peripheral blood mononuclear cells 0, 2, 4, 6 hours after infusion) was “progressively increases from baseline up to 6-hours” and the “levels of acetylated H3 and H4 (Western blot)” value ([8]; peripheral blood mononuclear cells, two hours after beginning the phenylbutyrate infusion) was “markedly increased”. The viable cells (NB4 cells [9]) was “no viable cells remained after 4 days of culture”, the apoptosis (NB4 cells [10]; phenylbutyrate 0.08 mM) was “no effect” and the apoptosis (NB4 cells [10]; phenylbutyrate 0.4 mM) was “no effects on other parameters”. For the same molecule, the induction of apoptosis (NB4 cells [10]; phenylbutyrate 2 mM, 2 days) was 15%, the apoptosis (NB4 cells [10]; phenylbutyrate 10 mM) was “induced marked apoptosis” and the clinical usefulness [11] was “has not been clinically useful”. The proliferation (NB4 cells [12]; phenylbutyrate 0.08 mM) was “no effect”, the proliferation (NB4 cells [12]; phenylbutyrate 0.4 mM) was “slight growth inhibition” and the proliferation (NB4 cells [12]; phenylbutyrate 2 mM) was “induced growth inhibition”. For the same molecule, the proliferation (NB4 cells [12]; phenylbutyrate 10 mM) was “completely inhibited proliferation”.

In the case of `CC1=C(/C=C/C(C)=C/C=C/C(C)=C/C(=O)O)C(C)(C)CCC1` [retinoic acid, all-trans-retinoic acid], the growth inhibition ([4]; retinoic acid 10^-7 M and 10^-6 M) is reported as “little if no effects” and the growth inhibition ([4]; retinoic acid 10^-7 M and 10^-6 M, listed as Retinoic acid) is reported as “minimal”.
